Assay results from US8785447B2, “Use of dopamine D3 receptor ligands for the production of drugs for treating renal function disorders” (AbbVie Deutschland GmbH & Co. KG, priority 2000, dated 2014).

Experiments:
Assay type in all cases: in vivo, male Sprague-Dawley rats
[1] = system: animal experimental model of diabetic nephropathy (rats with streptozotocin-induced diabetes mellitus); assay: 24-hour urine collection (protein by Lowry, albumin by RIA) in streptozotocin-diabetic rats; settings: for albuminuria / proteinuria: 24-hour urine of conscious diabetic rats after 12 days, via drinking water, S-sulpiride 25 mg/kg/d, D3-A1 5 mg/kg/d; for albuminuria: untreated diabetic 118 vs. time control 23; for proteinuria: untreated diabetic 133 vs. time control 46
Method: (§1) The action of the dopamine D3 antagonists was investigated in an animal experimental model of diabetic nephropathy. Rats in which diabetes mellitus had been induced by administration of streptozotocin developed marked glomerular hyperfiltration within 14 days.
(§2) 60 mg/kg of streptozotocin, dissolved in citrate buffer (21 mg of citric acid per 1 ml of double-distilled water), were injected intraperitoneally into male Sprague-Dawley rats having a body weight of 180 to 200 g. Diabetes mellitus was regarded as being induced successfully when an evening glucose concentration of at least 180 mg/dl was found in the venous blood after 24 hours. The blood glucose values of the diabetic animals were between 350 and 450 mg/dl. Insulin substitution was thus not necessary. The body weight of the experimental animals increased about 5 g per day. The same volume of citrate buffer was injected intraperitoneally into nondiabetic time control animals (CON). They had blood glucose values of between 90 and 1120 mg/dl.
(§3) Immediately after successful determination of diabetes mellitus, the animals were accommodated in normal cages with standard feed (Altromin 1320) and mains water ad libitum. By means of different medicinal treatment (administration of the substances via the drinking water), the following four experimental groups were formed: • CON (1) nondiabetic animals without additional treatment (time control) • DM-VHC (2) diabetic animals without additional treatment (diabetic control) • DM-SUL (3) diabetic animals with S-sulpiride treatment (25 mg/kg/d) • DM-D3 (4) diabetic animals with D3-A treatment (D3-A1: D3 receptor antagonist according to Example (7) (5 mg/kg/d); D3-A2: D3 receptor antagonist according to Example (11))
(§4) The volume of liquid absorbed was recorded daily. Every third day, the body weight and the blood glucose level of the animals were determined. After 12 days, the experimental animals were kept in metabolic cages for 24 hours for urine collection. The protein concentration in the urine was determined according to the standard method described by Lowry. For this, after incubation of the samples with 1 M NaOH a color reaction was induced with Folin reagent (phenol-Ciocalteu's), whose intensity was quantified photometrically. The albumin concentration in the urine was determined by a radioimmunoassay (RIA) specific for albumin. A kit from Biermann (KHAD 2: albumin RIA), was employed which used a polyclonal antibody against human serum albumin (goat) and ^125I-labeled human serum albumin as a tracer. After 14 to 16 days, the animals were anesthetized with thiopental (80 mg/kg) and polyethylene catheters were placed in the jugular vein and the carotid artery and also in the urinary bladder. The glomerular filtration rate (GFR) was determined by means of the renal ^3H-inulin clearance. The mean arterial blood pressure (MAP) and the heart rate (HR) were furthermore recorded during the experiment. At the end of the clearance experiments, the kidneys were removed and subjected to a histopathological examination.

[2] = system: animal experimental model of diabetic nephropathy (rats with streptozotocin-induced diabetes mellitus); assay: Clearance investigation (renal 3H-inulin clearance, GFR) in anesthetized streptozotocin-diabetic rats; settings: for glomerular filtration rate (GFR): anesthetized diabetic rats after 14 to 16 days, 3H-inulin clearance, S-sulpiride 25 mg/kg/d, D3-A 5 mg/kg/d, untreated diabetic 1.10 vs. time control 0.83
Method: as §1, §2, §3, §4

[3] = system: animal experimental model of diabetic nephropathy (rats with streptozotocin-induced diabetes mellitus); assay: Histopathological examination of the kidneys of streptozotocin-diabetic rats; settings: for structural intrarenal changes occurring in diabetic nephropathy: comparison of the treatment groups; for glomerular hypertrophy (enlargement of the glomeruli): mean of 20 microscopically measured areas, S-sulpiride 25 mg/kg/d, D3-A1 5 mg/kg/d
Method: as §2, §3, §4

[4] = system: animal experimental model of diabetic nephropathy (rats with streptozotocin-induced diabetes mellitus); assay: Kidney wet weight of streptozotocin-diabetic rats
Method: as §2, with “[…]. […]” for “1120 mg/dl.”
The volume of liquid absorbed was recorded daily. Every third day, the body weight and the blood glucose level of the animals were determined. […] The protein concentration in the urine was determined according to the standard method described by Lowry. For this, after incubation of the samples with 1 M NaOH a color reaction was induced with Folin reagent (phenol-Ciocalteu's), whose intensity was quantified photometrically. The albumin concentration in the urine was determined by a radioimmunoassay (RIA) specific for albumin. […] The glomerular filtration rate (GFR) was determined by means of the renal ^3H-inulin clearance. […]

[5] = diabetic rats, subchronic treatment
[6] = diabetic rats, subchronic treatment, 30 mg/kg body weight per day

Row | SMILES | albuminuria [1] | proteinuria [1] | glomerular filtration rate (GFR) [2] | renal hemodynamic changes in the course of diabetic nephropathy [2, 5] | structural intrarenal changes occurring in diabetic nephropathy [3] | glomerular hypertrophy (enlargement of the glomeruli) [3] | pathological protein and albumin excretion ([1]; diabetic rats, comparison of the treatment groups) | diabetes-induced renal hyperperfusion [2, 6] | glomerular hyperfiltration [2, 6] | kidney wet weight ([4]; diabetic rats treated with D3-A2, nondiabetic 0.9±0.1, DM-VHC 1.1+0.04) | incipient renal hypertrophy [4, 6]
1 | CCN1CCC[C@H]1CNC(=O)c1cc(S(N)(=O)=O)ccc1OC [sulpiride, S-sulpiride, reference compound] | 101 µg/day | 178 mg/day | 0.71 mL/min | significant decrease | not | likewise to be observed | – | – | – | – | –
2 | CC(=CCN1CCN(c2cc(C(F)(F)F)nc(C(C)(C)C)n2)CC1)CSc1nnc(N)n1C [Example 7] | 18 µg/day | 113 mg/day | 0.83 mL/min | significant decrease | abolished | not | markedly reduced | – | – | – | –
3 | CC(C)(C)c1nc(N2CCN(CCCSc3nccc(O)n3)CC2)cc(C(F)(F)F)n1.O=C(O)/C=C/C(=O)O [Example 11, 2-(3-(4-(2-t-Butyl-6-trifluoromethyl)pyrimidin-4-yl)piperazin-1-yl)propylmercaptopyrimidin-4-ol fumarate] | – | – | – | – | abolished | – | – | distinctly reduced | distinctly reduced | 0.96+0.03 g per 100 g body weight | distinct reduction
